From ChEMBL document CHEMBL4052645, “Discovery of potent and efficacious pyrrolopyridazines as dual JAK1/3 inhibitors” (Bioorg Med Chem Lett, 2017)

Key:
[1] = molecular target: Serine/threonine-protein kinase PAK 5 (Homo sapiens) (UniProt Q9P286); assay: Inhibition of wild-type human partial length PAK5 (Y400 to H719 residues) expressed in bacterial expression system assessed as residual activity at 50 nM by Kinomescan method relative to control
[2] = molecular target: Serine/threonine-protein kinase Nek4 (Homo sapiens) (UniProt P51957); assay: Inhibition of wild-type human full length NEK4 (M1 to F841 residues) expressed in mammalian expression system assessed as residual activity at 50 nM by Kinomescan method relative to control
[3] = molecular target: Serine/threonine-protein kinase PAK 3 (Homo sapiens) (UniProt O75914); assay: Inhibition of wild-type human full length PAK3 (M1 to R544 residues) expressed in bacterial expression system assessed as residual activity at 50 nM by Kinomescan method relative to control
[4] = molecular target: Receptor-interacting serine/threonine-protein kinase 4 (Homo sapiens) (UniProt P57078); assay: Inhibition of wild-type human partial length ANKRD3 (M1 to V303 residues) expressed in mammalian expression system assessed as residual activity at 50 nM by Kinomescan method relative to control
[5] = molecular target: Ephrin type-B receptor 6 (Homo sapiens) (UniProt O15197); assay: Inhibition of wild-type human partial length EPHB6 (Q634 to P948 residues) expressed in mammalian expression system assessed as residual activity at 50 nM by Kinomescan method relative to control
[6] = molecular target: Phosphatidylinositol 4-phosphate 5-kinase type-1 gamma (Homo sapiens) (UniProt O60331); assay: Inhibition of wild-type human partial length PIP5K1C (M1 to T668 residues) expressed in mammalian expression system assessed as residual activity at 50 nM by Kinomescan method relative to control
[7] = molecular target: Dual specificity protein kinase CLK2 (Homo sapiens) (UniProt P49760); assay: Inhibition of wild-type human partial length CLK2 (D144 to R498 residues) expressed in bacterial expression system assessed as residual activity at 50 nM by Kinomescan method relative to control
[8] = molecular target: Membrane-associated tyrosine- and threonine-specific cdc2-inhibitory kinase (Homo sapiens) (UniProt Q99640); assay: Inhibition of wild-type human partial length MYT1 (A88 to G366 residues) expressed in bacterial expression system assessed as residual activity at 50 nM by Kinomescan method relative to control
[9] = molecular target: Mitogen-activated protein kinase kinase kinase kinase 5 (Homo sapiens) (UniProt Q9Y4K4); assay: Inhibition of recombinant human KHS1 (M1 to P297 residues) expressed in bacterial expression system assessed as residual activity at 50 nM by Kinomescan method relative to control
[10] = molecular target: Mitogen-activated protein kinase 8 (Homo sapiens) (UniProt P45983); assay: Inhibition of wild-type human full length JNK1 (M1 to Q384 residues) expressed in mammalian expression system assessed as residual activity at 50 nM by Kinomescan method relative to control
[11] = molecular target: Serine/threonine-protein kinase Nek11 (Homo sapiens) (UniProt Q8NG66); assay: Inhibition of wild-type human partial length NEK11 (M1 to E313 residues) expressed in mammalian expression system assessed as residual activity at 50 nM by Kinomescan method relative to control
[12] = molecular target: Hepatocyte growth factor receptor (Homo sapiens) (UniProt P08581); assay: Inhibition of wild-type human partial length MET (D1010 to S1367 residues) expressed in bacterial expression system assessed as residual activity at 50 nM by Kinomescan method relative to control
[13] = molecular target: Serine/threonine-protein kinase Nek3 (Homo sapiens) (UniProt P51956); assay: Inhibition of wild-type human full length NEK3 (M1 to R506 residues) expressed in mammalian expression system assessed as residual activity at 50 nM by Kinomescan method relative to control
[14] = molecular target: Atypical kinase COQ8B, mitochondrial (Homo sapiens) (UniProt Q96D53); assay: Inhibition of wild-type human full length ADCK4 (M1 to S544 residues) expressed in bacterial expression system assessed as residual activity at 50 nM by Kinomescan method relative to control
[15] = molecular target: Mitogen-activated protein kinase kinase kinase 4 (Homo sapiens) (UniProt Q9Y6R4); assay: Inhibition of wild-type human partial length MAP3K4 ([…] residues) expressed in mammalian expression system assessed as residual activity at 50 nM by Kinomescan method relative to control
[16] = molecular target: Serine/threonine-protein kinase Chk1 (Homo sapiens) (UniProt O14757); assay: Inhibition of wild-type human partial length CHK1 (M1 to G289 residues) expressed in bacterial expression system assessed as residual activity at 50 nM by Kinomescan method relative to control
[17] = molecular target: Cytoplasmic tyrosine-protein kinase BMX (Homo sapiens) (UniProt P51813); assay: Inhibition of wild-type human full length BMX (M1 to H675 residues) expressed in bacterial expression system assessed as residual activity at 50 nM by Kinomescan method relative to control
[18] = molecular target: Calcium/calmodulin-dependent protein kinase type IV (Homo sapiens) (UniProt Q16566); assay: Inhibition of wild-type human partial length CAMK4 (A22 to A322 residues) expressed in bacterial expression system assessed as residual activity at 50 nM by Kinomescan method relative to control
[19] = molecular target: Cyclin-dependent kinase 4/cyclin D1 (Homo sapiens) (UniProt P11802+P24385); assay: Inhibition of wild-type human full length CDK4/cyclinD1 (M1 to E303 residues) expressed in mammalian expression system assessed as residual activity at 50 nM by Kinomescan method relative to control
[20] = molecular target: Ephrin type-A receptor 5 (Homo sapiens) (UniProt P54756); assay: Inhibition of wild-type human partial length EPHA5 (T627 to V930 residues) expressed in bacterial expression system assessed as residual activity at 50 nM by Kinomescan method relative to control
[21] = molecular target: Mitogen-activated protein kinase 4 (Homo sapiens) (UniProt P31152); assay: Inhibition of wild-type human partial length ERK4 (M1 to L365 residues) expressed in bacterial expression system assessed as residual activity at 50 nM by Kinomescan method relative to control
[22] = molecular target: Inhibitor of nuclear factor kappa-B kinase subunit epsilon (Homo sapiens) (UniProt Q14164); assay: Inhibition of wild-type human full length IKK-epsilon (M1 to V716 residues) expressed in mammalian expression system assessed as residual activity at 50 nM by Kinomescan method relative to control
[23] = molecular target: Interleukin-1 receptor-associated kinase 4 (Homo sapiens) (UniProt Q9NWZ3); assay: Inhibition of wild-type human partial length IRAK4 (M1 to S460 residues) expressed in mammalian expression system assessed as residual activity at 50 nM by Kinomescan method relative to control
[24] = molecular target: Serine/threonine-protein kinase NLK (Homo sapiens) (UniProt Q9UBE8); assay: Inhibition of wild-type human full length NLK (M13 to E527 residues) expressed in bacterial expression system assessed as residual activity at 50 nM by Kinomescan method relative to control
[25] = molecular target: Serine/threonine-protein kinase 32B (Homo sapiens) (UniProt Q9NY57); assay: Inhibition of wild-type human full length YANK2 (M1 to S414 residues) expressed in bacterial expression system assessed as residual activity at 50 nM by Kinomescan method relative to control

Chain of Inhibitor of nuclear factor kappa-B kinase subunit epsilon (Homo sapiens) (Q14164 whole entry, the tested form may be a part): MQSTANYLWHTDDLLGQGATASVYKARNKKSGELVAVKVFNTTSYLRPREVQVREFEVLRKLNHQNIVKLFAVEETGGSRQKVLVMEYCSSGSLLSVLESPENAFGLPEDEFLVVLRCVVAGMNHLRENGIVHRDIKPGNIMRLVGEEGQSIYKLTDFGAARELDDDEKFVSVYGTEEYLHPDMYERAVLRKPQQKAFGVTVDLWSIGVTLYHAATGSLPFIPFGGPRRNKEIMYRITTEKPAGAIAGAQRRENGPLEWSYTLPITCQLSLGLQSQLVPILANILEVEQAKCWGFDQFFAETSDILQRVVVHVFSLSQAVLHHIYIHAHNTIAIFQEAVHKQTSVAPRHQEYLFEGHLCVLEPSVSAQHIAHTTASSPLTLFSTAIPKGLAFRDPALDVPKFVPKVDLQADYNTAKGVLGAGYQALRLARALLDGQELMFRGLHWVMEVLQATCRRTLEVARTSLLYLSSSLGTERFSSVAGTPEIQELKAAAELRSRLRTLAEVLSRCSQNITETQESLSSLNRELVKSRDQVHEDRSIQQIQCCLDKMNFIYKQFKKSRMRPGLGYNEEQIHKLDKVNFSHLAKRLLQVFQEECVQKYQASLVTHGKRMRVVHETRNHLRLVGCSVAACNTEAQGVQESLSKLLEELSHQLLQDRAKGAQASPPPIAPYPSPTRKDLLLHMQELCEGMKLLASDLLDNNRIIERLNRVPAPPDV
Chain of Phosphatidylinositol 4-phosphate 5-kinase type-1 gamma (Homo sapiens) (O60331 whole entry, the tested form may be a part): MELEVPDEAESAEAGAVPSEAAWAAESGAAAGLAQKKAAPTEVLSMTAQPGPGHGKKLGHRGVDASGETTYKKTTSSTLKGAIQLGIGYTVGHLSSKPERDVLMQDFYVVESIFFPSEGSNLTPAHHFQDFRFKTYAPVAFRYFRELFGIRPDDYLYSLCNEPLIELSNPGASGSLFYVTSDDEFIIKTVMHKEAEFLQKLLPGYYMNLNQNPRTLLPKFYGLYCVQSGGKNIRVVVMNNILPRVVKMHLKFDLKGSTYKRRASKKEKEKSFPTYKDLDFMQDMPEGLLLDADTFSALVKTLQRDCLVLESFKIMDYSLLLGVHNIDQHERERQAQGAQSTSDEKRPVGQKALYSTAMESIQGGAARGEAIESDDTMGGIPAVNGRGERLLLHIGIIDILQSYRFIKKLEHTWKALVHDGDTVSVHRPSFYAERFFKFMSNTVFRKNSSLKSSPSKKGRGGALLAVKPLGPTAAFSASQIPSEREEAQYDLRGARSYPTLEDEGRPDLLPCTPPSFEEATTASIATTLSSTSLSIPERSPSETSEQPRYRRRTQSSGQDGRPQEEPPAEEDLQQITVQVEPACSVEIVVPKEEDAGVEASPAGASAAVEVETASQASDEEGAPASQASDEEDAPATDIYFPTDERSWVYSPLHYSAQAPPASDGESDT
Chain of Serine/threonine-protein kinase NLK (Homo sapiens) (Q9UBE8 whole entry, the tested form may be a part): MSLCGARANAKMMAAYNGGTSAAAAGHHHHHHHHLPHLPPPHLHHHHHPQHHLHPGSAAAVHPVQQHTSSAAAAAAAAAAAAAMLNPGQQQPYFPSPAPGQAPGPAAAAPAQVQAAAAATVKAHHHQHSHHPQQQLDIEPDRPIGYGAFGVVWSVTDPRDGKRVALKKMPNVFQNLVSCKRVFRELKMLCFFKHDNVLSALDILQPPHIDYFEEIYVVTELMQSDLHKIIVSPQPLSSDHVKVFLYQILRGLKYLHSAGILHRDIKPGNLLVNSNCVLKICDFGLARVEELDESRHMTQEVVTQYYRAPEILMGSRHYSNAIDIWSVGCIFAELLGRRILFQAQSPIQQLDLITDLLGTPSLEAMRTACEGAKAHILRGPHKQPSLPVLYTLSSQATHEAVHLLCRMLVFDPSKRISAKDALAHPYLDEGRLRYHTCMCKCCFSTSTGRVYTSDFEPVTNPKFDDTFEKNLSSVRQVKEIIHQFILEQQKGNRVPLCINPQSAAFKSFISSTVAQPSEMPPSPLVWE
Chain of Ephrin type-A receptor 5 (Homo sapiens) (P54756 whole entry, the tested form may be a part): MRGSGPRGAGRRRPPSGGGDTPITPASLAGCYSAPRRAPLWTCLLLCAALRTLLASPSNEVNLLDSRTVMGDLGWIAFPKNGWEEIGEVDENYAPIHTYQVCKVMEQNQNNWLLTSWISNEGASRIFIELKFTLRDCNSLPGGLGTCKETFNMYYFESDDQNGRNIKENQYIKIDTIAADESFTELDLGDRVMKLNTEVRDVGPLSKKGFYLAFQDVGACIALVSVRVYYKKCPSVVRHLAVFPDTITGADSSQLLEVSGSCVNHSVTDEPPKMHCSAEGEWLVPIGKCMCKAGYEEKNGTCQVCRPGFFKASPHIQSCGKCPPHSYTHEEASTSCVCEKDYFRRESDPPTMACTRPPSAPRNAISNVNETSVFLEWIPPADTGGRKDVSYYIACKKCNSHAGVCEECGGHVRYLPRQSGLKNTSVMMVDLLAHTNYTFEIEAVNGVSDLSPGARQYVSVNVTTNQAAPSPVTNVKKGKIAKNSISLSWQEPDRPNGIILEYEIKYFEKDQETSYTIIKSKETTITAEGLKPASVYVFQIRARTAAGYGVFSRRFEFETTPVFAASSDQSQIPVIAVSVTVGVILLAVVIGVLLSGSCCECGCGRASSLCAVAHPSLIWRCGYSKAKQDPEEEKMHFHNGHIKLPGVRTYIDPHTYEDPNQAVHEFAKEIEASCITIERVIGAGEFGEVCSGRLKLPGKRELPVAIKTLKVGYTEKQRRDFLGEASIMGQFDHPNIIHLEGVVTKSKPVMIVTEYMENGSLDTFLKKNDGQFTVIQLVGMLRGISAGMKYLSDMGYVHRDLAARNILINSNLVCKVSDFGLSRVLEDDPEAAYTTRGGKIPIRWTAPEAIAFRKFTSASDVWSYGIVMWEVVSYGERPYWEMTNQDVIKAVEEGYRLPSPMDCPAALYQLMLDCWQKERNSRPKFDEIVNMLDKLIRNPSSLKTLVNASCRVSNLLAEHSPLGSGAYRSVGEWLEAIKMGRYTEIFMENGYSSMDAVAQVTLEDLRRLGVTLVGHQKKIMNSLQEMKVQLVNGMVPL
Chain of Serine/threonine-protein kinase PAK 3 (Homo sapiens) (O75914 whole entry, looked up, the tested form may be a part): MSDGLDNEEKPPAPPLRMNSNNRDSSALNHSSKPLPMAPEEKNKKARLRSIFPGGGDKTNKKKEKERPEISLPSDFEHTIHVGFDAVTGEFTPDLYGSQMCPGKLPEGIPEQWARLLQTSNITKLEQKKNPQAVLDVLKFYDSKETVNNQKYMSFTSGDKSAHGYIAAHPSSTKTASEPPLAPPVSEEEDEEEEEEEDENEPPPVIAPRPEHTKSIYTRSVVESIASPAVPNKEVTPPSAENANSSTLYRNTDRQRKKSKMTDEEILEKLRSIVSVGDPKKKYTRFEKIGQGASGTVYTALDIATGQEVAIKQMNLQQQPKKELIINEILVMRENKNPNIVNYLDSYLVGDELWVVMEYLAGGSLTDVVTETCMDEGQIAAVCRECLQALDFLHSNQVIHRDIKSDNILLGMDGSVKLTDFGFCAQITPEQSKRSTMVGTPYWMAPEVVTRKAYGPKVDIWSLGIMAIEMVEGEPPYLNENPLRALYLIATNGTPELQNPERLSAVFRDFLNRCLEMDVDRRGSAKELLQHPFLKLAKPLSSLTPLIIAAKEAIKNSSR
Chain of Serine/threonine-protein kinase Chk1 (Homo sapiens) (O14757 whole entry, the tested form may be a part): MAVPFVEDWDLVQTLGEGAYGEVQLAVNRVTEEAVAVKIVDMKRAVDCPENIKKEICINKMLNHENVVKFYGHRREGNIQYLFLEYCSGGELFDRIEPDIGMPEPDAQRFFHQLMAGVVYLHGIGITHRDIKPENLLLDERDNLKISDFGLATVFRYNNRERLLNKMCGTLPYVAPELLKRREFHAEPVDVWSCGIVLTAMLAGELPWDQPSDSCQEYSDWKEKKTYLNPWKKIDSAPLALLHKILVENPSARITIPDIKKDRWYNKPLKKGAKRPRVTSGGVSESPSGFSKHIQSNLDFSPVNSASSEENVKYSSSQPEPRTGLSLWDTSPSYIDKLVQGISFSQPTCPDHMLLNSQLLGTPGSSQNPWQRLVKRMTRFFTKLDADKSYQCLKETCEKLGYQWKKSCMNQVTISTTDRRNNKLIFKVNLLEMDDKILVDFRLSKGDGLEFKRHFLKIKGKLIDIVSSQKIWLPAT
Chain of Dual specificity protein kinase CLK2 (Homo sapiens) (P49760 whole entry, looked up, the tested form may be a part): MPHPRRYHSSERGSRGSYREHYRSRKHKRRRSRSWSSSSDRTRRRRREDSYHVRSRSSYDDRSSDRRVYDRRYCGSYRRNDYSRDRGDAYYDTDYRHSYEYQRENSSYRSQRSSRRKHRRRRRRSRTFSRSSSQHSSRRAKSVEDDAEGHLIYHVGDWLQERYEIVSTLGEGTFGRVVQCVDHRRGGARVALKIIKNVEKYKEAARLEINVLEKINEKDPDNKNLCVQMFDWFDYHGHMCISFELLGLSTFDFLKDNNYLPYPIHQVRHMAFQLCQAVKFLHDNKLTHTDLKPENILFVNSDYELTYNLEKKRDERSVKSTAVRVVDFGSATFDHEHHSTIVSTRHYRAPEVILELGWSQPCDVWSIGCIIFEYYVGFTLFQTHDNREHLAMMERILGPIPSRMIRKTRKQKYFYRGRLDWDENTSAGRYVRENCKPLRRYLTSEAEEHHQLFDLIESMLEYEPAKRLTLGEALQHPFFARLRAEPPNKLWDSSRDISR
Chain of Calcium/calmodulin-dependent protein kinase type IV (Homo sapiens) (Q16566 whole entry, the tested form may be a part): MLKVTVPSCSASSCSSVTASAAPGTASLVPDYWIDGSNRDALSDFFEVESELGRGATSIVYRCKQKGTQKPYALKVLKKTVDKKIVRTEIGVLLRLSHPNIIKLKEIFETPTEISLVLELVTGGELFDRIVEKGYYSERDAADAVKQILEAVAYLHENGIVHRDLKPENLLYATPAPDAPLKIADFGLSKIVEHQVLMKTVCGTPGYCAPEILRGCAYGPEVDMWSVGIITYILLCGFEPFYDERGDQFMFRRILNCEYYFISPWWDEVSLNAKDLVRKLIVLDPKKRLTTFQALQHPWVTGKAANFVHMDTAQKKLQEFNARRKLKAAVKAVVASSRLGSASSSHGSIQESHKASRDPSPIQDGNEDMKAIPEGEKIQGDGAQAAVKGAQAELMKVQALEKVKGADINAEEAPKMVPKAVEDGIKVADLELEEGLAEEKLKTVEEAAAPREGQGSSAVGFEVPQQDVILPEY

Compound | Activity [1] [%] | Activity [2] [%] | Activity [3] [%] | Activity [4] [%] | Activity [5] [%] | Activity [6] [%] | Activity [7] [%] | Activity [8] [%] | Activity [9] [%] | Activity [10] [%] | Activity [11] [%] | Activity [12] [%] | Activity [13] [%] | Activity [14] [%] | Activity [15] [%] | Activity [16] [%] | Activity [17] [%] | Activity [18] [%] | Activity [19] [%] | Activity [20] [%] | further results
CC1(C)[C@H](Nc2c(C(N)=O)cnn3cc(-c4ccccc4)cc23)CC[C@]1(C)N | 50 | 52 | 53 | 59 | 66 | 68 | 69 | 79 | 80 | 81 | 87 | 88 | 89 | 91 | 96 | 98 | 100 | 100 | 100 | 100 | Activity [21]: 100%; Activity [22]: 100%; Activity [23]: 100%; Activity [24]: 100%; Activity [25]: 100%
COc1ccc(-c2cc3c(N[C@@H]4CC[C@](C)(N)C4(C)C)c(C(N)=O)cnn3c2)cn1 | 68 | 100 | 64 | 98 | 86 | 77 | 71 | 100 | 100 | 88 | 99 | 87 | 100 | 100 | 96 | 85 | 64 | 100 | 97 | 100 | Activity [21]: 100%; Activity [22]: 91%; Activity [23]: 100%; Activity [24]: 71%; Activity [25]: 100%
